# In US20070167492A1, “Molluscicidal agents” (priority 2003, published 2007):
# Assays:
# Format in all cases: in vivo
# [1] = system: Deroceras reticulatum (grey field slug); experiment: Example 1: pot test, treated winter wheat seed with 5 adult slugs per pot, 14 days; settings: for protection / slug controlling effect (conclusion): winter wheat seed treatment
# Method: (§1) Winter wheat (Kampa race; thousand grain weight of 51 grams) was used in an experiment to test the efficacy of the compositions of the present inventions in relation to known molluscicidal compounds. The seeds were disinfected for soil and germ moulds with 2 ml of Beret Gold (comprising 25 g/l of the fungicide fludioxonil) per kg of seed.
# (§2) Sepiret® was added to all dry disinfections, and is the coating that was added to all agents of which the formulation was not suitable for coating.
# The seeds were sown in earthenware pots with an internal diameter of 20 cm and a height of 18 cm, filled with 7 cm of potting soil (Trio BV, Weesp, The Netherlands) and with a top 2 cm of white quartz sand. A total of 40 seeds was placed in each pot, in a pattern of concentric circles on top of the quartz sand, the germ facing upwards. To each pot a total of 5 adult specimens of the test slug Deroceras reticulatum (grey field slug) were added. The pots were incubated at ±15° C. with a relative humidity of ±90% and light regime of ±12 hours light/12 hours dark, without artificial lighting. The pots were not irrigated overhead. In total, 4 parallel tests were performed for each test.
# Following the addition of the slugs, the number of damaged seeds was counted after 2, 3, 7, 10 and 14 days. The number of plants present (germinated and not eaten or damaged by the slugs) was determined 3, 7, 10 and 14 days after the start of the test. […] The number of dead slugs was counted 2, 3, 7, 10 and 14 days after the start of the test (but not removed). Finally, on days 3, 7, 10 and 14 after the start of the test, the number fecal pellets was counted.
# (§3) The data were statistically analysed by using F-tests (α=0.05) and pair-wise Student-tests.
# [2] = system: Winter wheat (Kampa race) seeds; experiment: Seed germination test of treated winter wheat seeds (rolled in paper); settings: 3x50 seeds, 6 days at 22° C.
# Method: as §1, §2
# Table 2 provides an overview of the amounts of diluent water and Sepiret® used for treating the wheat seeds. Table 2 further provides the quality of the coating and the percentages of germinating seeds in a seed germination test. In this test, the percentage of germination of 3×50 seeds, rolled in paper, was determined after 6 days at 22° C. (continuously) and a 16 hours light regime.
# [3] = system: Deroceras reticulatum (grey field slug); experiment: Example 2: pot re-test, treated winter wheat seed with 5 adult slugs per pot, 7 days
# Source text: Based on the results of the experiment described in Example 1, a selection was made from the various test numbers of that experiment for re-testing, partly to confirm the conclusions of that experiment and to test the unexpected outcome of some test compounds.
# The selection of test numbers (Test No.) used in the present experiment relative to those of the experiment described in Example 1 is shown in Table 7.
# The same seeds as described in Example 1 were sown in earthenware pots with an internal diameter of 20 cm and a height of 18 cm, filled with 7 cm of potting soil (Trio BV, Weesp, The Netherlands) and with a top 2 cm of white quartz sand. A total of 40 winter wheat seeds was placed in each pot, in a pattern of concentric circles on top of the quartz sand, the germ of the seed facing upwards. To each pot a total of 5 adult specimens of the test slug Deroceras reticulatum (grey field slug) were added. The pots were incubated at 18-19° C. with a relative humidity of ±95% and light regime of ±18 hours light/6 hours dark, without artificial lighting. The pots were not irrigated overhead. In total, 4 parallel tests were performed for each test.
# The number of damaged seeds was, the number of plants present (germinated and not eaten or damaged by the slugs), the number of dead slugs and of the number of fecal pellets were determined after 2, 3 and 7 days following the addition of the slugs.
# as §3
# [4] = 2 ml formulated per kg seed, 2 days after sowing
# [5] = 2 ml formulated per kg seed, 3 days after sowing
# [6] = 2 ml formulated per kg seed, 7 days after sowing
# [7] = 2 ml formulated per kg seed, 10 days after sowing
# [8] = 2 ml formulated per kg seed, 14 days after sowing
# [9] = 10 ml formulated per kg seed, 2 days after sowing
# [10] = 10 ml formulated per kg seed, 3 days after sowing
# [11] = 10 ml formulated per kg seed, 7 days after sowing
# [12] = 10 ml formulated per kg seed, 10 days after sowing
# [13] = 10 ml formulated per kg seed, 14 days after sowing
# [14] = Example 2, 10 ml formulated per kg seed, 2 days after sowing
# [15] = Example 2, 10 ml formulated per kg seed, 3 days after sowing
# [16] = Example 2, 10 ml formulated per kg seed, 7 days after sowing
# [17] = 4 ml formulated per kg seed, 2 days after sowing
# [18] = 4 ml formulated per kg seed, 3 days after sowing
# [19] = 4 ml formulated per kg seed, 7 days after sowing
# [20] = 4 ml formulated per kg seed, 10 days after sowing
# [21] = 4 ml formulated per kg seed, 14 days after sowing
# [22] = 8 ml formulated per kg seed, 2 days after sowing
# [23] = 8 ml formulated per kg seed, 3 days after sowing
# [24] = 8 ml formulated per kg seed, 7 days after sowing
# [25] = 8 ml formulated per kg seed, 10 days after sowing
# [26] = 8 ml formulated per kg seed, 14 days after sowing
compound,measurement,setting,value
abamectine,number of utilizable plants after 14 days,[1]; 2 ml formulated per kg seed,0.8
same,percentage of damaged seeds after 14 days,[1]; 2 ml formulated per kg seed,93%
same,Mean number of damaged seeds per pot,[1]; [4],3.8
same,Mean number of dead slugs per pot,[1]; [4],0
same,Mean number fecal pellets per pot,[1]; [5],43
same,Mean number of damaged seeds per pot,[1]; [5],14.3
same,Mean number of dead slugs per pot,[1]; [5],0
same,Mean number of plants present per pot,[1]; [5],6.3
same,Mean number fecal pellets per pot,[1]; [6],119
same,Mean number of damaged seeds per pot,[1]; [6],35.8
same,Mean number of dead slugs per pot,[1]; [6],0
same,Mean number of plants present per pot,[1]; [6],0
same,Mean number fecal pellets per pot,[1]; [7],133
same,Mean number of damaged seeds per pot,[1]; [7],35.5
same,Mean number of dead slugs per pot,[1]; [7],0.3
same,Mean number of plants present per pot,[1]; [7],0.8
same,Mean number fecal pellets per pot,[1]; [8],140
same,Mean number of damaged seeds per pot,[1]; [8],37.0
same,Mean number of dead slugs per pot,[1]; [8],0.3
same,Mean number of plants present per pot,[1]; [8],0.8
same,number of utilizable plants after 14 days,[1]; 10 ml formulated per kg seed,9.0
same,percentage of damaged seeds after 14 days,[1]; 10 ml formulated per kg seed,61%
same,Mean number of damaged seeds per pot,[1]; [9],1.5
same,Mean number of dead slugs per pot,[1]; [9],0.3
same,Mean number fecal pellets per pot,[1]; [10],15
same,Mean number of damaged seeds per pot,[1]; [10],3.3
same,Mean number of dead slugs per pot,[1]; [10],0.5
same,Mean number of plants present per pot,[1]; [10],3.8
same,Mean number fecal pellets per pot,[1]; [11],89
same,Mean number of damaged seeds per pot,[1]; [11],21.0
same,Mean number of dead slugs per pot,[1]; [11],1.3
same,Mean number of plants present per pot,[1]; [11],6.0
same,Mean number fecal pellets per pot,[1]; [12],106
same,Mean number of damaged seeds per pot,[1]; [12],23.8
same,Mean number of dead slugs per pot,[1]; [12],1.3
same,Mean number of plants present per pot,[1]; [12],8.8
same,Mean number fecal pellets per pot,[1]; [13],114
same,Mean number of damaged seeds per pot,[1]; [13],24.3
same,Mean number of dead slugs per pot,[1]; [13],1.5
same,Mean number of plants present per pot,[1]; [13],9.0
same,damaged seeds relative to the untreated control,"[1]; Example 1, 10 ml/kg, after 3, 7 and 14 days",significantly less damaged seeds
same,protection / slug controlling effect (conclusion),"[1]; Example 1, dosages tested",no sufficient protection to the plants
same,Percentage germinated,[2]; 2 ml formulated per kg seed,47%
same,Percentage germinated,[2]; 10 ml formulated per kg seed,2%
same,number of plants present relative to untreated,[3]; Example 2,no significantly different results
same,phytotoxic effect on the seeds,[3]; Example 2,phytotoxic effect on the seeds
same,result of seed treatment against slugs (conclusion),[3]; Example 2,does not give the desired effect
same,percentage of damaged seeds after 7 days,"[3]; Example 2, 10 ml formulated per kg seed",31%
same,Mean number of damaged seeds per pot,[3]; [14],2.8
same,Mean number of dead slugs per pot,[3]; [14],0
same,Mean number of damaged seeds per pot,[3]; [15],6.0
same,Mean number of dead slugs per pot,[3]; [15],0.3
same,Mean number of damaged seeds per pot,[3]; [16],12.5
same,Mean number of dead slugs per pot,[3]; [16],0.8
same,number of damaged seeds relative to the untreated seed,"[3]; Example 2, two days after the start",significant reduction in the number of damaged seeds
same,Mean number of fecal pellets per pot,"[3]; dosage 10 ml, 2 days",11
same,Mean number of plants present per pot,"[3]; dosage 10 ml, 2 days",0.3
same,Mean number of fecal pellets per pot,"[3]; dosage 10 ml, 3 days",30
same,Mean number of plants present per pot,"[3]; dosage 10 ml, 3 days",1.3
same,Mean number of fecal pellets per pot,"[3]; dosage 10 ml, 7 days",69
same,Mean number of plants present per pot,"[3]; dosage 10 ml, 7 days",4.5
same,number of utilizable plants after 7 days,"[3]; dosage 10 ml, 7 days",2.0
"COc1cc(C=CC(=O)O)cc(OC)c1 [dimethoxycinnamic acid, 3,5-dimethoxycinnamic acid]",number of utilizable plants after 14 days,[1]; 2 ml formulated per kg seed,0
same,percentage of damaged seeds after 14 days,[1]; 2 ml formulated per kg seed,99%
same,Mean number of damaged seeds per pot,[1]; [4],5.0
same,Mean number of dead slugs per pot,[1]; [4],0
same,Mean number fecal pellets per pot,[1]; [5],66
same,Mean number of damaged seeds per pot,[1]; [5],17.5
same,Mean number of dead slugs per pot,[1]; [5],0
same,Mean number of plants present per pot,[1]; [5],3.5
same,Mean number fecal pellets per pot,[1]; [6],115
same,Mean number of damaged seeds per pot,[1]; [6],39.5
same,Mean number of dead slugs per pot,[1]; [6],0.3
same,Mean number of plants present per pot,[1]; [6],0
same,Mean number fecal pellets per pot,[1]; [7],133
same,Mean number of damaged seeds per pot,[1]; [7],39.3
same,Mean number of dead slugs per pot,[1]; [7],0.3
same,Mean number of plants present per pot,[1]; [7],0
same,Mean number fecal pellets per pot,[1]; [8],141
same,Mean number of damaged seeds per pot,[1]; [8],39.8
same,Mean number of dead slugs per pot,[1]; [8],0.8
same,Mean number of plants present per pot,[1]; [8],0
same,number of utilizable plants after 14 days,[1]; 4 ml formulated per kg seed,1.5
same,percentage of damaged seeds after 14 days,[1]; 4 ml formulated per kg seed,87%
same,Mean number of damaged seeds per pot,[1]; [17],4.3
same,Mean number of dead slugs per pot,[1]; [17],0
same,Mean number fecal pellets per pot,[1]; [18],46
same,Mean number of damaged seeds per pot,[1]; [18],17.3
same,Mean number of dead slugs per pot,[1]; [18],0.3
same,Mean number of plants present per pot,[1]; [18],9.3
same,Mean number fecal pellets per pot,[1]; [19],120
same,Mean number of damaged seeds per pot,[1]; [19],31.8
same,Mean number of dead slugs per pot,[1]; [19],0.3
same,Mean number of plants present per pot,[1]; [19],1.8
same,Mean number fecal pellets per pot,[1]; [20],138
same,Mean number of damaged seeds per pot,[1]; [20],32.0
same,Mean number of dead slugs per pot,[1]; [20],0.3
same,Mean number of plants present per pot,[1]; [20],2.0
same,Mean number fecal pellets per pot,[1]; [21],158
same,Mean number of damaged seeds per pot,[1]; [21],34.8
same,Mean number of dead slugs per pot,[1]; [21],1.0
same,Mean number of plants present per pot,[1]; [21],2.0
same,number of utilizable plants after 14 days,[1]; 8 ml formulated per kg seed,1.0
same,percentage of damaged seeds after 14 days,[1]; 8 ml formulated per kg seed,84%
same,Mean number of damaged seeds per pot,[1]; [22],1.8
same,Mean number of dead slugs per pot,[1]; [22],0
same,Mean number fecal pellets per pot,[1]; [23],60
same,Mean number of damaged seeds per pot,[1]; [23],13.0
same,Mean number of dead slugs per pot,[1]; [23],0
same,Mean number of plants present per pot,[1]; [23],1.5
same,Mean number fecal pellets per pot,[1]; [24],106
same,Mean number of damaged seeds per pot,[1]; [24],30.3
same,Mean number of dead slugs per pot,[1]; [24],0
same,Mean number of plants present per pot,[1]; [24],1.0
same,Mean number fecal pellets per pot,[1]; [25],150
same,Mean number of damaged seeds per pot,[1]; [25],31.5
same,Mean number of dead slugs per pot,[1]; [25],0
same,Mean number of plants present per pot,[1]; [25],1.5
same,Mean number fecal pellets per pot,[1]; [26],158
same,Mean number of damaged seeds per pot,[1]; [26],33.8
same,Mean number of dead slugs per pot,[1]; [26],0
same,Mean number of plants present per pot,[1]; [26],1.5
same,differences in the number of damaged seeds,"[1]; Example 1, dosages tested",did not result in significant differences
same,protection / slug controlling effect (conclusion),"[1]; Example 1, dosages tested",no slug controlling effect
same,Percentage germinated,[2]; 2 ml formulated per kg seed,75%
same,Percentage germinated,[2]; 4 ml formulated per kg seed,75%
same,Percentage germinated,[2]; 8 ml formulated per kg seed,38%
